The record followed here is patent publication US9987276B2 (Celgene CAR LLC, priority 2008, dated 2018).

The structures appear in SMILES notation. Read-outs that look alike come from different tables or passages of the source.

The target in assay [1] is T1, BTK (Homo sapiens (Human), UniProt Q06187). Nature of the assay: Omnia assay for potency assessment against BTK. Format: biochemical. Particulars: for IC50: [BTK]=5 nM, Omnia assay, read-out: BTK Inhibition (IC50). The protocol: The modified BTK-optimized reagent conditions for the above protocol are:
[BTK]=5 nM, [ATP]=[…], [Y5-Sox]=[…] (ATP KMapp˜[…]).

The target of assay [2] is ITK (Homo sapiens (Human), UniProt Q08881). The assay is described as follows: Omnia assay for potency assessment against active forms of ITK kinase. Format: biochemical. Particulars: [ITK]=10 nM, [ATP]=25, [Y6-Sox]=10 μM; read-out: ITK Inhibition. The method, then:
[ITK]=10 nM, [ATP]=25 [Y6-Sox]=10 μM (ATP KMapp=33 μM).

The target of assay [3] is EGFR T790M (Homo sapiens (Human), UniProt P00533, T790M). The assay is described as follows: EGFR mutant T790M inhibition assay. The format is biochemical. The protocol:
The Omnia Assay Protocol for potency assessment against EGFR is performed as described in Example 251 above except that the EGFR-WT- and EGFR T790M/L858R-modified optimized reagent conditions are: […]

In assay [4] the target is ERBB1 (Homo sapiens (Human), UniProt P00533). The assay is described as follows: Z'-LYTE kinase inhibition, ErbB1. The format is biochemical. The protocol: (§1) Compounds of the present invention were assayed as inhibitors of one or more of ErbB1, ErbB2, and/or ErbB4 in a manner substantially similar to the method described by Invitrogen Corp (Invitrogen Corporation, 1600 Faraday Avenue, Carlsbad, Calif., CA; http://www.invitrogen.com/downloads/Z-LYTE_Brochure_1205.pdf) using the Z'-LYTE™ biochemical assay procedure or similar biochemical assay. The Z'-LYTE™ biochemical assay employs a fluorescence-based, coupled-enzyme format and is based on the differential sensitivity of phosphorylated and non-phosphorylated peptides to proteolytic cleavage.

The target in assay [5] is ERBB4 (HER4) (Homo sapiens (Human), UniProt Q15303). The assay is described as follows: Z'-LYTE kinase inhibition, ErbB4. Format: biochemical. The method, then: as §1
The target in assay [6] is EGFR-WT (Homo sapiens (Human), UniProt P00533). The assay is described as follows: Omnia assay for potency assessment against EGFR (WT).
For assay [7], the target named is EGFR-T790M/L858R (Homo sapiens (Human), UniProt P00533, L858R/T790M). The assay is described as follows: Omnia assay for potency assessment against EGFR (T790M/L858R). Particulars: read-out: EGFR (T790M/L858R); EGFR mutant T790M/L858R.
Assay [8] has as its target T1, BTK. The assay is described as follows: BTK Ramos cellular assay (PLCγ2 phosphorylation). Format: cell-based. Particulars: Ramos cells, 1 hour compound, anti-IgM stimulation, p-PLCγ2; read-out: BTK Inhibition (IC50), BTK Ramos cellular inhibition.
Assay [9] addresses T1, BTK. The assay is described as follows: Mass spectrometry for BTK (intact protein). The format is binding. The following applies: 1 hr, 10× fold excess of compound. The protocol:
Intact BTK was incubated for 1 hr at a 10× fold excess of I-7 to protein. Aliquots (2 μl) of the samples were diluted with 10 μl of 0.1% TFA prior to micro C4 ZipTipping directly onto the MALDI target using Sinapinic acid as the desorption matrix (10 mg/ml in 0.1% TFA:Acetonitrile 20:80).

In assay [10] the test system is TI-2 independent B cell activation. The assay is described as follows: In vivo thymus-independent (TI-2) B cell activation. Particulars: C57/B6 mice, 100 mg/kg daily day 0 through 5, TNP-Ficoll, serum day 6.
A short description of assay [11]: PG-PS arthritis model. The format is in vivo. The following applies: female Lewis rats, oral gavage daily through day 22. The protocol: On day 0, female Lewis rats received an intraperitoneal (IP) bolus of peptidoglycan-polysaccharide (PG-PS) in an amount of 15 μg/g rat body weight. Baseline control rats received an IP bolus of PBS. The vehicle and treatment groups were dosed via oral gavage just prior to PG-PS administration. Treatment with vehicle and compound continued each day through day 22. Maximal lateral ankle width measurements of both rear limbs were collected with a caliper throughout the study. On day 23, study was terminated and the final change in ankle swelling was calculated and compared to vehicle controls.

Assay [12] concerns the target T1, BTK. The assay is described as follows: BTK occupancy from in vitro samples by ELISA (Ramos cells). Format: cell-based. Particulars: ELISA with probe I-215. The protocol:
(§2) In order to determine the amount of free BTK in cell or tissue lysates, an ELISA protocol was employed that utilizes a biotinylated probe compound that binds only to free, unoccupied BTK. The conjugated biotin is captured on a streptavidin-coated ELISA plate and detected with a mouse anti-BTK antibody (Becton Dickinson, Franklin Lakes, N.J., USA) and a secondary goat anti-mouse HRP antibody (Zymed, South San Francisco, Calif., USA).
All samples were prepared with equal concentrations of Biorad lysis buffer (Hercules, Calif., USA), 0.5% bovine serum albumin in PBS with 0.05% Tween-20 to give a final concentration of 1 μM I-215. Samples were incubated in a mixing plate for 1 hr at room temperature while shaking to allow probe compound I-215 to bind to free BTK. After incubation with I-215, samples were added to a washed, streptavidin-coated ELISA plate (Pierce, Rockford, Ill., USA) and incubated for 1 hr at room temperature while shaking. The plate was then washed with PBS containing 0.05% Tween-20 using an automatic plate washer. Anti-BTK antibody was prepared at 1:1000 dilution in 0.5% BSA in PBS (0.05% Tween-20) and added to the ELISA plate. The plate was incubated for 1 hr at room temperature while shaking. The plate was washed as described above and the secondary HRP antibody was prepared at 1:5000 dilution in 0.5% BSA in PBS (0.05% Tween-20). The plate was incubated and washed as described above. TMB was added to the plate, and OD650 was monitored until reaching 1 OD unit. The reaction was then stopped with addition of H2SO4. The plate was analyzed using Gen 5 software, and a 4 Parameter Logistic curve was employed to quantitate samples. Recombinant BTK (Invitrogen, Carlsbad, Calif., USA) was used for the standard curve.
A concentration designated as “A” is greater than 1 nM; a concentration designated as “B” is greater than 10 nM; and a concentration designated as “C” is greater than 50 nM.
A general note: ELISA stands for enzyme-linked immunosorbent assay.

In assay [13] the target is T1, BTK. The assay is described as follows: Human primary B cell covalent probe occupancy in vitro. Particulars: human primary B cells, 1 h at 37° C., probe I-215 ELISA. Format: cell-based. The protocol: as §2
(§3) All samples were prepared with equal concentrations of Biorad lysis buffer (Hercules, Calif., USA), 0.5% bovine serum albumin in PBS with 0.05% Tween-20 to give a final concentration of 1 μM I-215. Samples were incubated in a mixing plate for 1 hr at room temperature while shaking to allow probe compound I-215 to bind to free BTK. After incubation with I-215, samples were added to a washed, streptavidin-coated ELISA plate (Pierce, Rockford, Ill., USA) and incubated for 1 hr at room temperature while shaking. […] TMB was added to the plate, and OD650 was monitored until reaching 1 OD unit. […] The plate was analyzed using Gen 5 software, and a 4 Parameter Logistic curve was employed to quantitate samples. […]
Human primary B cells were isolated as described in Example 256, then resuspended in RPMI media (10% serum). The compound to be analyzed was added at a 1:1000 dilution to media. […] The supernatant was analyzed as described in Example 283 using I-215.

Assay [14] addresses BTK (Canis lupus familiaris, UniProt A0A8I3P3Z9). The assay is described as follows: Dog primary B cell covalent probe occupancy in vitro. Format: cell-based. The following applies: canine PBMCs, one hour at 37° C., probe I-215 ELISA. The method, then: as §2, §3
Canine whole blood (30 mL) was diluted to 50 mL total with 1×PBS and layered on top of Histopaque-1077 (Sigma Aldrich). […] The supernatant was analyzed as described in Example 283 using I-215. […]

For assay [15], the system named is Human naïve B cells. The assay is described as follows: Human primary B cell proliferation assay. Format: cell-based. The method, then:
Human naïve B cells were purified from 100 mL whole blood using a MACS purification kit designed to isolate CD19+, IgD+ cells by negative selection. Purified naïve B cells were resuspended in RPMI complete and stimulated with 5 μg/ml α-IgM for 72 hours. ^3H-Thymidine was included in the culture media for the final 16 h, cells were harvested and ^3H incorporation measured. Inhibition of B cell proliferation correlates with inhibition of BTK substrate phosphorylation after α-IgM stimulation.

Sequence of EGFR-T790M/L858R (P00533 25-1210 T790M/L858R): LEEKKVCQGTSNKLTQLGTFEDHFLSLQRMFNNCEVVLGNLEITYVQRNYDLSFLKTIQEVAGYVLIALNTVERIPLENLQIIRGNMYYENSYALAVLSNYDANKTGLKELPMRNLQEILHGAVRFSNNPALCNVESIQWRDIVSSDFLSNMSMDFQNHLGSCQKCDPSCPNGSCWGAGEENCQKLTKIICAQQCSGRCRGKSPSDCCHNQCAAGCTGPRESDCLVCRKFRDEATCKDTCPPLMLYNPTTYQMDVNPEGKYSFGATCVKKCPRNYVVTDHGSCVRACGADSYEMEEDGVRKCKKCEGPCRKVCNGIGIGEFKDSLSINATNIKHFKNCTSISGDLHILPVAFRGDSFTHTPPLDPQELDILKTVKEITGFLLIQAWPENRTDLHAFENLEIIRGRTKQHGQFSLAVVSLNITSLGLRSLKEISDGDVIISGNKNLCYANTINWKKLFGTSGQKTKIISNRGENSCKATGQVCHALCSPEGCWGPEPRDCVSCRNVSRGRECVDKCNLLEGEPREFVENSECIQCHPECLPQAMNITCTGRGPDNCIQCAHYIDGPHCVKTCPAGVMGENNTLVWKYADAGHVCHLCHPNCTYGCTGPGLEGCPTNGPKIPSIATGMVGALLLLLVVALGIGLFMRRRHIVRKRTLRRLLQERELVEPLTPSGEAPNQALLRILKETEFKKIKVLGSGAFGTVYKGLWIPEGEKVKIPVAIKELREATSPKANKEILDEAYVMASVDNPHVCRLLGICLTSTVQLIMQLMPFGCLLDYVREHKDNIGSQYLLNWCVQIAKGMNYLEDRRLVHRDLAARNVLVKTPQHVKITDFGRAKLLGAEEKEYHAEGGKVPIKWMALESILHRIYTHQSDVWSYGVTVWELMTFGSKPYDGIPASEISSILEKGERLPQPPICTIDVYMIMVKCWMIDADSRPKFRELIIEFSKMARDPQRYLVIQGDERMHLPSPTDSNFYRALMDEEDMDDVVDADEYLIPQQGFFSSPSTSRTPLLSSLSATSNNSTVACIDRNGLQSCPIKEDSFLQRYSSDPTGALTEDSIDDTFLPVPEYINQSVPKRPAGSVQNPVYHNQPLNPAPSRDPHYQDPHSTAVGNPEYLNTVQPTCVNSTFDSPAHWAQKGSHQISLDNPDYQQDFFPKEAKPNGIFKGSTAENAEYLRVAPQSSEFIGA
Sequence of EGFR-WT (P00533 668-1210): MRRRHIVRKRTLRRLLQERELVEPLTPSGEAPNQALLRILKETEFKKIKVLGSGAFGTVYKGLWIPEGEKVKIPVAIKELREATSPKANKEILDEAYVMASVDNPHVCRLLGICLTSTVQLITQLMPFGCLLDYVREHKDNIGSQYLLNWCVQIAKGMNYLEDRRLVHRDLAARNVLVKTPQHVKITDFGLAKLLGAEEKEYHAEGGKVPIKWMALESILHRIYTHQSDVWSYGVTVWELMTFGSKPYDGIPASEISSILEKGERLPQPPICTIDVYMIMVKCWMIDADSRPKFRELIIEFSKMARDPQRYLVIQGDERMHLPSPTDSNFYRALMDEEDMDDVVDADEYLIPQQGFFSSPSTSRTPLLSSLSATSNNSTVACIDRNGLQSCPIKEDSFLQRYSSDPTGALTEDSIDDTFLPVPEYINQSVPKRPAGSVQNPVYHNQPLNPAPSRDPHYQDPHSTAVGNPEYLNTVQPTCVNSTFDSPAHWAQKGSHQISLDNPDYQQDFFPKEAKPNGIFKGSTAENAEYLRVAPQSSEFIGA
Sequence of ITK (Q08881 whole entry): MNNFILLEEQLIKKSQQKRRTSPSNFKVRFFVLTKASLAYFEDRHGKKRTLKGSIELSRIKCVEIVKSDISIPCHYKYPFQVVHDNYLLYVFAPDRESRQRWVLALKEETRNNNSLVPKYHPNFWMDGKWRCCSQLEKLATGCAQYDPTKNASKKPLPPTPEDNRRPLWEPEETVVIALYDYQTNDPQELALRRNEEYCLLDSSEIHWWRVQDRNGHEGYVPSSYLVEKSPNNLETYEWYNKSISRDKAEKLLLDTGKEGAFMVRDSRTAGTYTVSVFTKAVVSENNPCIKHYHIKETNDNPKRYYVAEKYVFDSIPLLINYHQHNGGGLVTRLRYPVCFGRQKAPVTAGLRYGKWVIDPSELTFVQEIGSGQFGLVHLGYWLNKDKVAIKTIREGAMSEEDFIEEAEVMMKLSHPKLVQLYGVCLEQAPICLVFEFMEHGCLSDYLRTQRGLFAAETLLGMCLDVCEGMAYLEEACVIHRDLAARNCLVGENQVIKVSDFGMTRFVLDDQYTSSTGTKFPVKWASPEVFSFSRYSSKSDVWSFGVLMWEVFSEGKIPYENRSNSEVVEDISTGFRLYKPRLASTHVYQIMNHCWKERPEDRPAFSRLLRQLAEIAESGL
T1 sequence (Q06187 whole entry): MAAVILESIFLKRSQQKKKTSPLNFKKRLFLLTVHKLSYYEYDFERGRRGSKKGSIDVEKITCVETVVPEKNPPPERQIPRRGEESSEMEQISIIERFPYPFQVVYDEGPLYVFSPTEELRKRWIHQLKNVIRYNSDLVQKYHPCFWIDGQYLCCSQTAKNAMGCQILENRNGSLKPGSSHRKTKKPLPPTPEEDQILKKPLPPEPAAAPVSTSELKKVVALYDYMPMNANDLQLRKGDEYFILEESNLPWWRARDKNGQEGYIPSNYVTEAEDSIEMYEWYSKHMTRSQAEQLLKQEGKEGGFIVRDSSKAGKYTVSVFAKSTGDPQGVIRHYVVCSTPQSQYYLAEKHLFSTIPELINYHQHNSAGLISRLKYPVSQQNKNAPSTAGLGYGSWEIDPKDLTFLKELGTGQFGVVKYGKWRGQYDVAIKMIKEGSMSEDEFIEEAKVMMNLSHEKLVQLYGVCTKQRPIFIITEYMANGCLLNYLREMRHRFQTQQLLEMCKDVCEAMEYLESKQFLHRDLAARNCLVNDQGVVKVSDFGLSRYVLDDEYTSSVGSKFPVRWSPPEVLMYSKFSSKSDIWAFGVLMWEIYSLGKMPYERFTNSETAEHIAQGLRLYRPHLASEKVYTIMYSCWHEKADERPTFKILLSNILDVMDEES
Sequence of EGFR T790M (P00533 25-1210 T790M): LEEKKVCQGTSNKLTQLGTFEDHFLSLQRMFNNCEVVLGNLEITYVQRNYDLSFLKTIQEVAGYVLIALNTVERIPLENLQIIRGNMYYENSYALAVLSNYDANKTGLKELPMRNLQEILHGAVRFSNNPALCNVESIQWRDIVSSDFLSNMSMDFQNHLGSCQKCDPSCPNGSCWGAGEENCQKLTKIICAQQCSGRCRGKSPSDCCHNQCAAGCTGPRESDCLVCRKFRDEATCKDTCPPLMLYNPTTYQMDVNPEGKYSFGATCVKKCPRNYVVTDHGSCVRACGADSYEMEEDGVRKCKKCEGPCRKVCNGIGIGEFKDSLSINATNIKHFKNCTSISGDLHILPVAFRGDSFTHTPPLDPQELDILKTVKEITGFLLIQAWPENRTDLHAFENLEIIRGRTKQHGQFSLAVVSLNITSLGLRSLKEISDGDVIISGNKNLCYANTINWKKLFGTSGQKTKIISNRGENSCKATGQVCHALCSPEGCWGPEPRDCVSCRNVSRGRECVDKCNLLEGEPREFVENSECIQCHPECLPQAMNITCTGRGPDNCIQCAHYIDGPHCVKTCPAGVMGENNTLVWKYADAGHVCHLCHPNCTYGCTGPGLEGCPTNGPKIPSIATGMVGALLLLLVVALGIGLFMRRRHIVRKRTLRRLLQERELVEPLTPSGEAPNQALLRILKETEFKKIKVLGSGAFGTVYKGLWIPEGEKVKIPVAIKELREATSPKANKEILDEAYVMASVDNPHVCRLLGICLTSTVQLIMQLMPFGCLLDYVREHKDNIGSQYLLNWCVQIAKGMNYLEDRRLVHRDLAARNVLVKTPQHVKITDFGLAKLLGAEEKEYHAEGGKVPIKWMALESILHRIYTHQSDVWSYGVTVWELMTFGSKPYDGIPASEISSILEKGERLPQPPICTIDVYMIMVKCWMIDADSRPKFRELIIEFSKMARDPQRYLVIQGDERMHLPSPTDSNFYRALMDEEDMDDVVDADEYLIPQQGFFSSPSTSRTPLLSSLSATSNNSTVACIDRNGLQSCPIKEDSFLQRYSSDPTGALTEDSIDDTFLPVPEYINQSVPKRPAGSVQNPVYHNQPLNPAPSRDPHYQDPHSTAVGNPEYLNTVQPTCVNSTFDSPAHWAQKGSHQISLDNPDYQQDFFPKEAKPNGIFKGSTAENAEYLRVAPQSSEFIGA
Sequence of BTK (Canis lupus familiaris, UniProt A0A8I3P3Z9) (A0A8I3P3Z9 1-664): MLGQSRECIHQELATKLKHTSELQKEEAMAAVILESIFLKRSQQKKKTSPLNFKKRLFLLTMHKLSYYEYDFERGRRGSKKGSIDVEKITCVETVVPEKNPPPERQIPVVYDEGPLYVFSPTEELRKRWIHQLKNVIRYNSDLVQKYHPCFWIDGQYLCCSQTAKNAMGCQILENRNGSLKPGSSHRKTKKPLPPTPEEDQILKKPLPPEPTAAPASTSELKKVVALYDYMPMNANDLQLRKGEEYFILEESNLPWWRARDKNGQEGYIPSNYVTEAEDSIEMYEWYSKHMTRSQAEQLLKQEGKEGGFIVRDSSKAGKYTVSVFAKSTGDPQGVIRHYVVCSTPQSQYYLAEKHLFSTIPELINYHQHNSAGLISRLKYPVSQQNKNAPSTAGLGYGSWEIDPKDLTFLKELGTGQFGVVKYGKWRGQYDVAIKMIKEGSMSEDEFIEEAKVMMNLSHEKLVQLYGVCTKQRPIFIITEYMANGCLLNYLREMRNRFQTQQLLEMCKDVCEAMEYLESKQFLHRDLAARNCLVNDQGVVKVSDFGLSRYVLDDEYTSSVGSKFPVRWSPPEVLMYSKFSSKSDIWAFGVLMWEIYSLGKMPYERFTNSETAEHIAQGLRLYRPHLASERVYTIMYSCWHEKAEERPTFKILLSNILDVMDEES

`C=CC(=O)Nc1ccc(C)c(Nc2nccc(-c3cccnc3)n2)c1` [Compound I-56, N-(4-methyl-3-(4-(pyridin-3-yl)pyrimidin-2-ylamino)phenyl) acrylamide]: the IC50 in [1] was 100 to 1000 nM; in assay [2], 100 to 1000 nM; in [3], 10 to 100 nM; in [4], 2230 nM; in [5], 2170 nM; in [6], 10 to 100 nM. In assay [7], the IC50 was < 10 nM.
`C=CC(=O)Nc1cccc(Nc2nc(Nc3ccc(OCCOC)c(F)c3)ncc2F)c1` [Compound I-96, N-(3-(2-(3-fluoro-4-(2-methoxyethoxy)phenylamino)-5-fluoropyrimidin-4-ylamino)phenyl)acrylamide]: the IC50 in [1] was < 10 nM; in assay [8], < 10 nM; in assay [2], 10 to 100 nM; in assay [3] it was < 10 nM; in assay [6], 10 to 100 nM; in [7], < 10 nM. In addition, the “covalent modification of BTK (mass spectrometry)” value in assay [9] is on record as “completely modify”. In addition, the “% Inhibition IgG3 (1:100)” value in [10] is on record as 37.2%. In addition, the “% Inhibition IgM (1:1600)” value in assay [10] was found to be 43%. Moreover, the “% inhibition ankle swelling” value in assay [11] was found to be 82.8%. Also, in [12], the “>50% occupancy (concentration at which >50% of BTK is occupied)” value is “A (greater than 1 nM)”. Also, in assay [12], the “>90% occupancy (concentration at which >90% of BTK is occupied)” value is given as “B (greater than 10 nM)”. For the same molecule, the “concentration at which at least 50% of BTK is occupied” value in [13] and in assay [14] was “greater than 10 nM” in each case.
Consider `C=CC(=O)Nc1cccc(Nc2nc(Nc3ccc(OCCOC)cc3)ncc2F)c1` [Compound I-182, N-(3-(5-fluoro-2-(4-(2-methoxyethoxy)phenylamino)pyrimidin-4-ylamino)phenyl)acrylamide], for which the “covalent modification of BTK (mass spectrometry)” value in [9] was “completely modify”. Moreover, in [10], the “% Inhibition IgG3 (1:100)” value was 40% and the “% Inhibition IgM (1:1600)” value stood at 25%. The IC50 in assay [2] fell in the range of 10 to 100 nM. Also, in [12], the “>50% occupancy (concentration at which >50% of BTK is occupied)” value is reported as “A (greater than 1 nM)” and the “>90% occupancy (concentration at which >90% of BTK is occupied)” value is “C (greater than 50 nM)”. The “concentration at which at least 50% of BTK is occupied” value in assay [13] is recorded as “greater than 10 nM”. Moreover, the IC50 in assay [6] (read-out: EGFR (wild type inhibition), EGFR wild type) is < 10 nM.
With `CCC(=O)Nc1cccc(Nc2nc(Nc3ccccc3)ncc2C)c1` [I^R-7, N-(3-(5-methyl-2-(phenylamino)pyrimidin-4-ylamino)phenyl) propionamide], in assay [1], the “biochemical activity against BTK” value was “biochemically inactive”. For the same molecule, the IC50 fell in the range of 100 to 1000 nM in assay [1], 1000 to 10000 nM in assay [6] and 1000 to 10000 nM in assay [7]. Also, the “activity in the naïve B cell proliferation assay” value in [15] is given as “not active”.
